# pIC50: −log10 of the molar value.
# Tested on: 454973-116-R2-J3-PDC spheroids, percent test/control viability
# Assay: Anticancer human tumor 454973-116-R2-J3-PDC patient-derived pancreatic carcinoma cell line growth inhibition [CLK]
# Conditions: spheroids with HUVEC and MSC; for pIC50: curve of first compound; for viability, T/C: stronger effect = lower value
# Procedure, shortened: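 Multi-cell-type spheroids combined patient-derived tumor cells with HUVEC endothelial cells and human mesenchymal stem cells. Paired agents were dosed in half-log steps down from about clinical Cmax, or from 10 microM where Cmax was unknown.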
# 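Further: spheroids exposed to compounds for 7 days before readout.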
smiles,measurement,setting,value
C=CC(=O)Nc1cc(Nc2nccc(-c3cn(C)c4ccccc34)n2)c(OC)cc1N(C)CCN(C)C + CN1CCN(c2cc(C(=O)Nc3cc4cc(-c5cnn(C)c5)ccc4cn3)ccn2)CC1,pIC50,second compound 0.0316 µM,< 6.52
same,pIC50,second compound 0.1 µM,< 6.52
same,pIC50,second compound 0.316 µM,> 9.02
same,pIC50,second compound 1 µM,> 9.02
same,pIC50,second compound 3.16 µM,> 9.02
same,pIC50,second compound 10 µM,> 9.02
same,"viability, T/C","second compound 0.0316 µM, first compound 0.000949 µM",95.6%
same,"viability, T/C","second compound 0.0316 µM, first compound 0.003 µM",107%
same,"viability, T/C","second compound 0.0316 µM, first compound 0.00949 µM",96.8%
same,"viability, T/C","second compound 0.0316 µM, first compound 0.03 µM",104%
same,"viability, T/C","second compound 0.0316 µM, first compound 0.0949 µM",102%
same,"viability, T/C","second compound 0.0316 µM, first compound 0.3 µM",98.3%
same,"viability, T/C","second compound 0.1 µM, first compound 0.000949 µM",72.8%
same,"viability, T/C","second compound 0.1 µM, first compound 0.003 µM",76.6%
same,"viability, T/C","second compound 0.1 µM, first compound 0.00949 µM",77.1%
same,"viability, T/C","second compound 0.1 µM, first compound 0.03 µM",77.1%
same,"viability, T/C","second compound 0.1 µM, first compound 0.0949 µM",79%
same,"viability, T/C","second compound 0.1 µM, first compound 0.3 µM",72%
same,"viability, T/C","second compound 0.316 µM, first compound 0.000949 µM",1.85%
same,"viability, T/C","second compound 0.316 µM, first compound 0.003 µM",4.04%
same,"viability, T/C","second compound 0.316 µM, first compound 0.00949 µM",1.97%
same,"viability, T/C","second compound 0.316 µM, first compound 0.03 µM",3.67%
same,"viability, T/C","second compound 0.316 µM, first compound 0.0949 µM",1.83%
same,"viability, T/C","second compound 0.316 µM, first compound 0.3 µM",1.5%
same,"viability, T/C","second compound 1 µM, first compound 0.000949 µM",0.13%
same,"viability, T/C","second compound 1 µM, first compound 0.003 µM",0.14%
same,"viability, T/C","second compound 1 µM, first compound 0.00949 µM",0.14%
same,"viability, T/C","second compound 1 µM, first compound 0.03 µM",0.1%
same,"viability, T/C","second compound 1 µM, first compound 0.0949 µM",0.12%
same,"viability, T/C","second compound 1 µM, first compound 0.3 µM",0.12%
same,"viability, T/C","second compound 3.16 µM, first compound 0.000949 µM",0.15%
same,"viability, T/C","second compound 3.16 µM, first compound 0.003 µM",0.21%
same,"viability, T/C","second compound 3.16 µM, first compound 0.00949 µM",0.2%
same,"viability, T/C","second compound 3.16 µM, first compound 0.03 µM",0.2%
same,"viability, T/C","second compound 3.16 µM, first compound 0.0949 µM",1.74%
same,"viability, T/C","second compound 3.16 µM, first compound 0.3 µM",0.35%
same,"viability, T/C","second compound 10 µM, first compound 0.000949 µM",0.31%
same,"viability, T/C","second compound 10 µM, first compound 0.003 µM",0.26%
same,"viability, T/C","second compound 10 µM, first compound 0.00949 µM",0.21%
same,"viability, T/C","second compound 10 µM, first compound 0.03 µM",0.29%
same,"viability, T/C","second compound 10 µM, first compound 0.0949 µM",2.12%
same,"viability, T/C","second compound 10 µM, first compound 0.3 µM",2.07%
Nc1ccccc1NC(=O)c1ccc(CNC(=O)OCc2cccnc2)cc1 + CN1CCN(c2cc(C(=O)Nc3cc4cc(-c5cnn(C)c5)ccc4cn3)ccn2)CC1,pIC50,second compound 0.0316 µM,5.68
same,pIC50,second compound 0.1 µM,5.94
same,pIC50,second compound 0.316 µM,> 7.50
same,pIC50,second compound 1 µM,> 7.50
same,pIC50,second compound 3.16 µM,> 7.50
same,pIC50,second compound 10 µM,> 7.50
same,"viability, T/C","second compound 0.0316 µM, first compound 0.0316 µM",95.7%
same,"viability, T/C","second compound 0.0316 µM, first compound 0.1 µM",92.8%
same,"viability, T/C","second compound 0.0316 µM, first compound 0.316 µM",89.9%
same,"viability, T/C","second compound 0.0316 µM, first compound 1 µM",74.2%
same,"viability, T/C","second compound 0.0316 µM, first compound 3.16 µM",36.7%
same,"viability, T/C","second compound 0.0316 µM, first compound 10 µM",10.9%
same,"viability, T/C","second compound 0.1 µM, first compound 0.0316 µM",73.5%
same,"viability, T/C","second compound 0.1 µM, first compound 0.1 µM",76.7%
same,"viability, T/C","second compound 0.1 µM, first compound 0.316 µM",60.5%
same,"viability, T/C","second compound 0.1 µM, first compound 1 µM",57.6%
same,"viability, T/C","second compound 0.1 µM, first compound 3.16 µM",24.1%
same,"viability, T/C","second compound 0.1 µM, first compound 10 µM",2.49%
same,"viability, T/C","second compound 0.316 µM, first compound 0.0316 µM",1.31%
same,"viability, T/C","second compound 0.316 µM, first compound 0.1 µM",1.59%
same,"viability, T/C","second compound 0.316 µM, first compound 0.316 µM",0.45%
same,"viability, T/C","second compound 0.316 µM, first compound 1 µM",2.31%
same,"viability, T/C","second compound 0.316 µM, first compound 3.16 µM",0.06%
same,"viability, T/C","second compound 0.316 µM, first compound 10 µM",0.18%
same,"viability, T/C","second compound 1 µM, first compound 0.0316 µM",0.11%
same,"viability, T/C","second compound 1 µM, first compound 0.1 µM",0.84%
same,"viability, T/C","second compound 1 µM, first compound 0.316 µM",0.11%
same,"viability, T/C","second compound 1 µM, first compound 1 µM",0.08%
same,"viability, T/C","second compound 1 µM, first compound 3.16 µM",0.05%
same,"viability, T/C","second compound 1 µM, first compound 10 µM",0.07%
same,"viability, T/C","second compound 3.16 µM, first compound 0.0316 µM",0.13%
same,"viability, T/C","second compound 3.16 µM, first compound 0.1 µM",0.33%
same,"viability, T/C","second compound 3.16 µM, first compound 0.316 µM",0.2%
same,"viability, T/C","second compound 3.16 µM, first compound 1 µM",0.11%
same,"viability, T/C","second compound 3.16 µM, first compound 3.16 µM",0.1%
same,"viability, T/C","second compound 3.16 µM, first compound 10 µM",0.77%
same,"viability, T/C","second compound 10 µM, first compound 0.0316 µM",0.13%
same,"viability, T/C","second compound 10 µM, first compound 0.1 µM",0.68%
same,"viability, T/C","second compound 10 µM, first compound 0.316 µM",0.22%
same,"viability, T/C","second compound 10 µM, first compound 1 µM",0.29%
same,"viability, T/C","second compound 10 µM, first compound 3.16 µM",0.22%
same,"viability, T/C","second compound 10 µM, first compound 10 µM",0.18%

# From PubChem BioAssay AID2060618 (Molecular Pharmacology Branch, DTP, NCI, 2025)
